In US11925643B2, “Toll-like receptor 4 (TLR4) inhibitors and use thereof” (MOR RESEARCH APPLICATIONS LTD., priority 2018, dated 2024):
Residues, ends and D or L forms follow the SMILES beside them.

Legend:
[1] = target: T1, TLR4 (Mus musculus, UniProt Q9QUK6); test: TLR4 protein level by Western blot in hypoxic cardiomyocytes; type: cell-based; details: 20 μM, hypoxic conditions
T1 construct: endogenous in cells; host or cells: primary cardiomyocytes under hypoxia
T1 sequence (Q9QUK6 26-835): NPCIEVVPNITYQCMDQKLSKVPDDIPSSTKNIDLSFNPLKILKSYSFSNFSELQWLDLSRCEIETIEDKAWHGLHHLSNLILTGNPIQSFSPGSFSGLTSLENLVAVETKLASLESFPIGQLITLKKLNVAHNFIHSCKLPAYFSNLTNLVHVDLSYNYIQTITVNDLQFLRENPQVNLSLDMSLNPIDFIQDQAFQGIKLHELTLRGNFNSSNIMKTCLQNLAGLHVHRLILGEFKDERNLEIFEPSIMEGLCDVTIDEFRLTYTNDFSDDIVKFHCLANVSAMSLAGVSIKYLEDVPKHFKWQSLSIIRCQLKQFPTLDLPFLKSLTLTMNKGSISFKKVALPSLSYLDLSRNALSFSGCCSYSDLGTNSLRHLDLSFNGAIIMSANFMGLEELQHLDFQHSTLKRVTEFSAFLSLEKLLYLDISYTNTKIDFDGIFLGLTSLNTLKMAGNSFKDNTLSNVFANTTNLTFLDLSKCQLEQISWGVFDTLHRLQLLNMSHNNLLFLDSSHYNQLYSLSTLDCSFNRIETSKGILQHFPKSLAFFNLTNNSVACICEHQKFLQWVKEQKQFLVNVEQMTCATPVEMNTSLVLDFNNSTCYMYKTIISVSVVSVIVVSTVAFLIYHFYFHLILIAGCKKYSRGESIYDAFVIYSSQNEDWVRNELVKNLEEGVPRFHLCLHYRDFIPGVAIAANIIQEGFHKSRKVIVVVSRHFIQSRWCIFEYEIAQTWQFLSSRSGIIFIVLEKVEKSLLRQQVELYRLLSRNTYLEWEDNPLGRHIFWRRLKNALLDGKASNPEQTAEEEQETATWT
Procedure: Frozen tissue/cell cultures of liver or heart were pulverized under liquid nitrogen and placed in a homogenization buffer ([…] phosphate buffer, […] sucrose, […] EDTA, […] phenylmethylsulfonyl fluoride (PMSF), and 0.1% vol/vol tergitol, pH 7.5). Myocytes from cell cultures were homogenized in lysis buffer.
Homogenates were centrifuged at 12K rpm for 10 minutes at 4° C., the supernatant was isolated, and protein levels were visualized by immunoblotting with antibodies. Briefly, proteins (60 μg/sample) were separated using SDS-PAGE gel (12%-15%) under denaturing conditions and electro-transferred (blotted) onto nitrocellulose (Bio-Rad) for 1 hour at 100 V. Membranes were blocked with 5% nonfat milk in Tris-buffered saline with 0.1% Tween® 20 (TBST) for 1 hour at room temperature. Primary antibodies were used at a 1:200-1:1000 concentration in TBST with 5% nonfat milk overnight at 4° C. Immunodetection of β-actin/GPDH was performed as an internal control. Dye 800/680 secondary antibodies were added at a concentration of 1:15000 for 1 hour at room temperature (LI-COR® Biosciences, NE, USA). Detection was carried out with LI-CORE® Odyssey® imaging system. Quantification of signals was carried out with the Odyssey® program. […]

[2] = tested on: primary cardiomyocytes; test: CK and LDH release by primary cardiomyocytes under LPS treatment (sepsis like); type: cell-based, Rat; details: LPS treatment; 20 μM
Procedure: Rat hearts (1-2 days old) were removed under sterile conditions and washed three times in phosphate-buffered saline (PBS) to remove excess blood cells. The hearts were minced and then gently agitated in RBD (a solution of proteolytic enzymes (Biological Institute, Ness-Ziona, Israel) prepared from fig tree extract, and diluted 1:100 in Ca^2+- and Mg^2+-free PBS) for a few cycles of 10 min each. Dulbecco's modified Eagle's medium (Biological Industries, Kibbutz Beit Haemek, Israel) containing 10% horse serum was added to supernatant suspensions containing the dissociated cells. The mixture was centrifuged at 1400 rpm for 4 min. The supernatant phase was discarded, and the cells were re-suspended. The cell suspension was diluted to 1.0×10^6 cells/ml, unless stated otherwise, and 1.5 ml of the suspension was placed in 35-mm plastic culture dishes collagen- or gelatin-coated, or on coated cover glasses. The cultures were incubated in a humidified atmosphere of 5% CO2 and 95% air at 37° C.
Primary cardiomyocytes which were obtained by method described above, were treated with exemplary decoy peptides described herein. After 30 minutes of incubation, sepsis like (LPS treatment for 6 hours), or myocardial infarction (MI) like (hypoxia for 3 hours) conditions were imposed to measure the release of CK and LDH to the medium and determine the potential cardioprotective effect of the tested decoy peptides. Cytotoxicity and level of cell damage were assessed by spectrophotometric measurement of lactate dehydrogenase (LDH) and creatine kinase (CK) activities (at 30° C.). Results are presented as CK and LDH release in arbitrary units (a.u.)
Activity of LDH and CK was determined in the cell-culture medium (25 μl) transferred into 96-well plates, using commercial L-LDH/CK kits (such as those manufactured, e.g., by Sigma-Aldrich, BioVision™ or Thermo Fisher Scientific®).
Primary cardiomyocytes were treated with peptides and peptidomimetics of SEQ ID NOs:1-7 provided at concentrations ranging from 1 μM to 20 μM. Following 30 minutes of incubation, sepsis like (LPS treatment for 6 hours) or MI like (hypoxia for 3 hours) conditions were induced to determine the potential cardioprotective effect of the tested compounds. Creatine kinase (CK) and lactate dehydrogenase (LDH) activity were assayed to determine the level of cellular damage and cell protection effect. The experimental procedure is described in Materials and Methods above. Results are presented as CK and LDH release in arbitrary units (a.u.).

Compound	decrease of TLR4 protein expression [1] [fold]	CK release [2]	LDH release [2]	decrease of TLR4 protein expression relative to PM6 ([1]; positive control)
CCCCCCCCNc1nc(=O)n(Cc2ccccc2)cc1C [PM6, 1-benzyl-5-methyl-4-(octylamino)pyrimidin-2(1H)-one]	7.6	no significant effect	no significant effect	–
CC[C@H](C)[C@H](NC(C)=O)C(=O)N[C@H](C(=O)N[C@@H](Cc1ccccc1)C(=O)N[C@@H](C)C(N)=O)C(C)C [SEQ ID NO:1, (2S,3S)-2-acetamido-N-((S)-1-(((S)-1-(((S)-1-amino-1-oxopropan-2-yl)amino)-1-oxo-3-phenylpropan-2-yl)amino)-3-methyl-1-oxobutan-2-yl)-3-methylpentanamide] (Ac-IVFA-NH2)	–	subnormal levels	subnormal levels	same extent
